Measured values published in PubChem BioAssay AID1259407 (Chemical Carcinogenesis Research Information System (CCRIS), 2018).
“Also recorded” adds a separate entry of the source. The source made the active and inactive calls. No rule for the calls is given here.

Test system: CCRIS mutagenicity, Ames/micronucleus/aberration tests
Assay: CCRIS mutagenicity studies
[1] = Test System: AMES SALMONELLA TYPHIMURIUM, Strain/Indicator: TA98, Metabolic Activation: NONE, Method: PREINCUBATION
[2] = Test System: AMES SALMONELLA TYPHIMURIUM, Strain/Indicator: TA100, Metabolic Activation: NONE, Method: PREINCUBATION
[3] = Test System: AMES SALMONELLA TYPHIMURIUM, Strain/Indicator: TA1535, Metabolic Activation: NONE, Method: PREINCUBATION
[4] = Test System: AMES SALMONELLA TYPHIMURIUM, Strain/Indicator: TA1537, Metabolic Activation: NONE, Method: PREINCUBATION
[5] = Test System: MOUSE LYMPHOMA, Strain/Indicator: L5178Y (TK+/TK-), Metabolic Activation: RAT, LIVER, S-9, AROCLOR 1254, Method: SUSPENSION/PLATE
[6] = Test System: AMES SALMONELLA TYPHIMURIUM, Strain/Indicator: TA98, Metabolic Activation: HAMSTER, LIVER, S-9, AROCLOR 1254 (10%), Method: PREINCUBATION
[7] = Test System: AMES SALMONELLA TYPHIMURIUM, Strain/Indicator: TA98, Metabolic Activation: RAT, LIVER, S-9, AROCLOR 1254 (10%), Method: PREINCUBATION
[8] = Test System: AMES SALMONELLA TYPHIMURIUM, Strain/Indicator: TA100, Metabolic Activation: HAMSTER, LIVER, S-9, AROCLOR 1254 (10%), Method: PREINCUBATION
[9] = Test System: AMES SALMONELLA TYPHIMURIUM, Strain/Indicator: TA100, Metabolic Activation: RAT, LIVER, S-9, AROCLOR 1254 (10%), Method: PREINCUBATION
[10] = Test System: AMES SALMONELLA TYPHIMURIUM, Strain/Indicator: TA1535, Metabolic Activation: HAMSTER, LIVER, S-9, AROCLOR 1254 (10%), Method: PREINCUBATION
[11] = Test System: AMES SALMONELLA TYPHIMURIUM, Strain/Indicator: TA1535, Metabolic Activation: RAT, LIVER, S-9, AROCLOR 1254 (10%), Method: PREINCUBATION
[12] = Test System: AMES SALMONELLA TYPHIMURIUM, Strain/Indicator: TA1537, Metabolic Activation: HAMSTER, LIVER, S-9, AROCLOR 1254 (10%), Method: PREINCUBATION
[13] = Test System: AMES SALMONELLA TYPHIMURIUM, Strain/Indicator: TA1537, Metabolic Activation: RAT, LIVER, S-9, AROCLOR 1254 (10%), Method: PREINCUBATION

Brc1c(Br)c(Br)c(Oc2c(Br)c(Br)c(Br)c(Br)c2Br)c(Br)c1Br
mutagenic call (End Point: IN VITRO CHROMOSOMAL ABERRATIONS, Test System: CHO CELLS, Metabolic Activation: NONE): inactive; negative; precipitation occurred at 160 and 500 ug/ml; also recorded: inactive; negative; precipitation occurred at 250 and 500 ug/ml
mutagenic call (End Point: IN VITRO CHROMOSOMAL ABERRATIONS, Test System: CHO CELLS, Metabolic Activation: RAT, LIVER, S-9, AROCLOR 1254): inactive; negative; precipitation occurred at 250 and 500 ug/ml
mutagenic call (Test System: AMES SALMONELLA TYPHIMURIUM, Strain/Indicator: TA98, Metabolic Activation: HAMSTER, LIVER, S-9, AROCLOR 1254, Method: PREINCUBATION): inactive; negative
mutagenic call [1]: inactive; negative
mutagenic call (Test System: AMES SALMONELLA TYPHIMURIUM, Strain/Indicator: TA98, Metabolic Activation: RAT LIVER S-9, PHENOBARBITAL AND BETA-NAPHTHOFLAVONE, Method: PREINCUBATION): inactive; negative
mutagenic call (Test System: AMES SALMONELLA TYPHIMURIUM, Strain/Indicator: TA98, Metabolic Activation: RAT, LIVER, S-9, AROCLOR 1254, Method: PREINCUBATION): inactive; negative
mutagenic call (Test System: AMES SALMONELLA TYPHIMURIUM, Strain/Indicator: TA100, Metabolic Activation: HAMSTER, LIVER, S-9, AROCLOR 1254, Method: PREINCUBATION): inactive; negative
mutagenic call [2]: inactive; negative
mutagenic call (Test System: AMES SALMONELLA TYPHIMURIUM, Strain/Indicator: TA100, Metabolic Activation: RAT LIVER S-9, PHENOBARBITAL AND BETA-NAPHTHOFLAVONE, Method: PREINCUBATION): inactive; negative
mutagenic call (Test System: AMES SALMONELLA TYPHIMURIUM, Strain/Indicator: TA100, Metabolic Activation: RAT, LIVER, S-9, AROCLOR 1254, Method: PREINCUBATION): inactive; negative
mutagenic call (Test System: AMES SALMONELLA TYPHIMURIUM, Strain/Indicator: TA1535, Metabolic Activation: HAMSTER, LIVER, S-9, AROCLOR 1254, Method: PREINCUBATION): inactive; negative
mutagenic call [3]: inactive; negative
mutagenic call (Test System: AMES SALMONELLA TYPHIMURIUM, Strain/Indicator: TA1535, Metabolic Activation: RAT LIVER S-9, PHENOBARBITAL AND BETA-NAPHTHOFLAVONE, Method: PREINCUBATION): inactive; negative
mutagenic call (Test System: AMES SALMONELLA TYPHIMURIUM, Strain/Indicator: TA1535, Metabolic Activation: RAT, LIVER, S-9, AROCLOR 1254, Method: PREINCUBATION): inactive; negative
mutagenic call (Test System: AMES SALMONELLA TYPHIMURIUM, Strain/Indicator: TA1537, Metabolic Activation: HAMSTER, LIVER, S-9, AROCLOR 1254, Method: PREINCUBATION): inactive; negative
mutagenic call [4]: inactive; negative
mutagenic call (Test System: AMES SALMONELLA TYPHIMURIUM, Strain/Indicator: TA1537, Metabolic Activation: RAT LIVER S-9, PHENOBARBITAL AND BETA-NAPHTHOFLAVONE, Method: PREINCUBATION): inactive; negative
mutagenic call (Test System: AMES SALMONELLA TYPHIMURIUM, Strain/Indicator: TA1537, Metabolic Activation: RAT, LIVER, S-9, AROCLOR 1254, Method: PREINCUBATION): inactive; negative
mutagenic call (Test System: CHO/HGPRT, Strain/Indicator: CHO/GIEMSA, Metabolic Activation: NONE, Method: STANDARD PLATE): inactive; negative
mutagenic call (Test System: CHO/HGPRT, Strain/Indicator: CHO/GIEMSA, Metabolic Activation: RAT, LIVER, S-9, AROCLOR 1254, Method: STANDARD PLATE): inactive; negative
mutagenic call (Test System: E.COLI, Strain/Indicator: WP2UVRA/PKM101, Metabolic Activation: NONE, Method: PREINCUBATION): inactive; negative
mutagenic call (Test System: E.COLI, Strain/Indicator: WP2UVRA/PKM101, Metabolic Activation: RAT LIVER S-9, PHENOBARBITAL AND BETA-NAPHTHOFLAVONE, Method: PREINCUBATION): inactive; negative
mutagenic call (Test System: MOUSE LYMPHOMA, Strain/Indicator: L5178Y (TK+/TK-), Metabolic Activation: NONE, Method: SUSPENSION/PLATE): inactive; negative
mutagenic call [5]: inactive; negative

CC(=O)N(O)c1ccc(Oc2ccc(Cl)cc2Cl)cc1
mutagenic call (Test System: AMES SALMONELLA TYPHIMURIUM, Strain/Indicator: TA100, Metabolic Activation: NONE, Method: STANDARD PLATE): inactive; negative
mutagenic call (Test System: AMES SALMONELLA TYPHIMURIUM, Strain/Indicator: TA100, Metabolic Activation: RAT, LIVER, S-9, KANECLOR 500, Method: STANDARD PLATE): active; positive

Cc1cccc2c1C(C)c1ccccc1-2 (stereo unspecified)
mutagenic call (Test System: AMES SALMONELLA TYPHIMURIUM, Strain/Indicator: TA98, Metabolic Activation: RAT, LIVER, S-9, AROCLOR 1254, Method: STANDARD PLATE): active; positive
mutagenic call (Test System: AMES SALMONELLA TYPHIMURIUM, Strain/Indicator: TA100, Metabolic Activation: RAT, LIVER, S-9, AROCLOR 1254, Method: STANDARD PLATE): active; positive

O=C1C=Cc2c(ccc3cc4ccccc4cc23)C1=O
mutagenic call (Test System: AMES SALMONELLA TYPHIMURIUM, Strain/Indicator: TA97A, Metabolic Activation: NONE, Method: PREINCUBATION): inactive; negative
mutagenic call [1]: inactive; negative
mutagenic call [2]: inactive; negative
mutagenic call (Test System: AMES SALMONELLA TYPHIMURIUM, Strain/Indicator: TA102, Metabolic Activation: NONE, Method: PREINCUBATION): inactive; negative
mutagenic call (Test System: AMES SALMONELLA TYPHIMURIUM, Strain/Indicator: TA104, Metabolic Activation: NONE, Method: PREINCUBATION): inactive; negative

Nc1cccc(N)c1C(=O)O
mutagenic call [1]: inactive; negative
mutagenic call (Test System: AMES SALMONELLA TYPHIMURIUM, Strain/Indicator: TA98, Metabolic Activation: RAT, LIVER, S-9, PHENOBARBITAL AND 5,6-BENZOFLAVONE, Method: PREINCUBATION): active; positive
mutagenic call [2]: inactive; negative
mutagenic call (Test System: AMES SALMONELLA TYPHIMURIUM, Strain/Indicator: TA100, Metabolic Activation: RAT, LIVER, S-9, PHENOBARBITAL AND 5,6-BENZOFLAVONE, Method: PREINCUBATION): inactive; negative

Nc1ccccc1C(=O)O
mutagenic call [6]: inactive; negative
mutagenic call [1]: inactive; negative
mutagenic call [7]: inactive; negative
mutagenic call [8]: inactive; negative
mutagenic call [2]: inactive; negative
mutagenic call [9]: inactive; negative
mutagenic call [10]: inactive; negative
mutagenic call [3]: inactive; negative
mutagenic call [11]: inactive; negative
mutagenic call [12]: inactive; negative
mutagenic call [4]: inactive; negative
mutagenic call [13]: inactive; negative
mutagenic call (Test System: CHINESE HAMSTER OVARY, Strain/Indicator: CHO-K1-BH4 (HGPRT)/6-THIOGUANINE, Metabolic Activation: NONE): inactive; negative
mutagenic call (Test System: CHINESE HAMSTER OVARY, Strain/Indicator: CHO-K1-BH4 (HGPRT)/6-THIOGUANINE, Metabolic Activation: S-9): inactive; negative
mutagenic call [5]: active; positive
mutagenic call (Test System: Mouse lymphoma, Strain/Indicator: L5178Y (tk+/tk-), Metabolic Activation: None, Method: Suspension/plate): inactive; negative
mutagenic call (Test System: Mouse lymphoma, Strain/Indicator: L5178Y (tk+/tk-), Metabolic Activation: Rat, Liver, S-9, Aroclor 1254, Method: Suspension/plate): active; positive

CC1CC(OC(=O)c2ccccc2O)CC(C)(C)C1 (stereo unspecified)
mutagenic call [6]: inactive; negative
mutagenic call [1]: inactive; negative
mutagenic call [7]: inactive; negative
mutagenic call [8]: inactive; negative
mutagenic call [2]: inactive; negative
mutagenic call [9]: inactive; negative
mutagenic call [10]: inactive; negative
mutagenic call [3]: inactive; negative
mutagenic call [11]: inactive; negative
mutagenic call [12]: inactive; negative
mutagenic call [4]: inactive; negative
mutagenic call [13]: inactive; negative
